Measurements: ChEMBL document CHEMBL1148830, “Discovery and investigation of antiproliferative and apoptosis-inducing properties of new heterocyclic podophyllotoxin analogues accessible by a one-step multicomponent synthesis” (2007)
Activity calls are given as the source filed them. The rule behind the calls is not given here.

What was measured:
Jurkat [1] = assay: Antiproliferative activity against human Jurkat cells assessed as cell viability at 50 uM after 48 hrs by MTT assay; format: functional; conditions: read-out: Activity
Jurkat [2] = assay: Induction of apoptosis in Jurkat cells assessed as cell viability at 50 uM after 48 hrs by flow cytometry Annexin-V/propidium iodide assay; format: functional; conditions: Homo sapiens, read-out: Activity
Lymphocyte = assay: Induction of apoptosis in human whole blood lymphocytes after 24 hrs by flow cytometric Annexin-V/propidium iodide assay; format: functional, cell-based
Jurkat [3] = assay: Induction of apoptosis in Jurkat cells after 24 hrs by flow cytometric Annexin-V/propidium iodide assay; format: functional, cell-based; conditions: Homo sapiens
[4] = Antiproliferative activity against human MCF7/AZ cells assessed as cell viability at 5 uM after 48 hrs by MTT assay relative to control; format: functional; conditions: read-out: Activity
[5] = Antiproliferative activity against human MCF7/AZ cells assessed as cell viability at 50 uM after 48 hrs by MTT assay; format: functional; conditions: read-out: Activity
Jurkat [6] = assay: Effect on apoptosis in Jurkat cells assessed as DNA laddering after 24 hrs at 1 uM; format: functional, cell-based; conditions: Homo sapiens
HeLa [7] = assay: Antiproliferative activity against HeLa cells assessed as cell viability at 5 uM after 48 hrs by MTT assay relative to control; format: functional; conditions: Homo sapiens, read-out: Activity
Jurkat [8] = assay: Induction of apoptosis in Jurkat cells assessed as cell viability at 5 uM after 48 hrs by flow cytometry Annexin-V/propidium iodide assay; format: functional; conditions: Homo sapiens, read-out: Activity
HeLa [9] = assay: Antiproliferative activity against HeLa cells assessed as cell viability at 50 uM after 48 hrs by MTT assay; format: functional; conditions: Homo sapiens, read-out: Activity
Jurkat [10] = assay: Antiproliferative activity against human Jurkat cells assessed as cell viability at 5 uM after 48 hrs by MTT assay; format: functional; conditions: read-out: Activity
HeLa [11] = assay: Growth inhibition of HeLa cells after 48 hrs by MTT assay; format: functional; conditions: Homo sapiens

COc1cc([C@@H]2c3cc4c(cc3[C@@H](O[C@@H]3O[C@@H]5CO[C@@H](C)O[C@H]5[C@H](O)[C@H]3O)[C@H]3COC(=O)[C@H]23)OCO4)cc(OC)c1O [ETOPOSIDE]
viability at 50 µM (Jurkat [1]): 50%
viability at 50 µM (Jurkat [2]): 61%
Activity (Lymphocyte): inactive
Activity (Jurkat [3]): Active
viability at 5 µM [4]: 76%
viability at 50 µM [5]: 57%
Activity (Jurkat [6]): inactive
viability at 5 µM (HeLa [7]): 91%
viability at 5 µM (Jurkat [8]): 4%
viability at 50 µM (HeLa [9]): 15%
viability at 5 µM (Jurkat [10]): 75%
GI50 (HeLa [11]): 8 µM
